Experimental data taken from patent publication US20230381082A1, “PHOTOPROTECTIVE COSMETIC COMPOSITIONS COMPRISING XANTHOMMATIN AS AN ANTIOXIDANT AND UV-FILTER STABILIZER” (SEASPIRE, INC., priority 2020, published 2023).
Values after ≈ are worked out from the molar mass of the structure shown. Values joined by “and” are separate entries in the source; they are usually repeats but may differ in a detail not shown here. Equal entries are not always repeated. “Also recorded” adds a separate entry of the source. Where two headings read alike, the source gives them in different places. Values belong to the molecule of their own block, whether it stands above or below them.

Tests used:
[1] = Oxygen Radical Antioxidant Capacity (ORAC) assay; conditions: for AUC: single antioxidant, 40 uM; for antioxidant activity/capacity compared to known standards (Trolox, vitamin C): 90 minutes at 37° C.
Source text: The ORAC assay measures the antioxidant capacity of biomolecules based on the oxidation of a fluorescein probe by peroxyl radicals (Fluorescence decreases as antioxidant capacity decreases).
The antioxidant properties of ammonium xanthommatin (referred to herein as “xanthommatin”) in an unsaturated solution were compared to known standard antioxidants. The results of the experiments are provided in FIGS. 1-3, illustrating the relative fluorescence value (RFU) over time (in seconds) for known antioxidants Trolox (a vitamin E analogue) and ascorbic acid compared to xanthommatin. Experiments were performed using 10, 20, and 40 μM Trolox, ascorbic acid, and ammonium xanthommatin (“Xa”) and compared to performance of 1:1 Trolox:Xa (20 μM: 20 μM and 40 μM: 40 μM) and 1:1 ascorbic acid:Xa (20 μM: 20 μM and 40 μM: 40 μM).
For antioxidant stabilizing/boosting experiments, the antioxidizing capacity and performance of ammonium xanthommatin only and ammonium xanthommatin blended with equimolar ascorbic acid (vitamin C) or Trolox (a vitamin E analogue) over 90 minutes at 37° C. were tested using a standard Oxygen Radical Antioxidant Capacity (ORAC) Assay. The ORAC assay measured the antioxidant capacity of biomolecules based on the oxidation of a fluorescein probe by peroxyl radicals (Fluorescence decreases as antioxidant capacity decreases). The ORAC assay is described in detail at https://www.cellbiolabs.com/sites/default/files/STA-345-orac-assay-kit.pdf, the contents of which are incorporated by reference herein. […] FIG. 19 provides half life measurements of ammonium xanthommatin in solution compared to vitamin C in solution when assayed at the same concentration. […] FIGS. 20 and 21, respectively, show the performance of vitamin C and vitamin E is extended when combined with ammonium xanthommatin.

[2] = UV-boosting properties: UV absorption of chemical UV filters alone and in combination; assay type: physicochemical; conditions: for reduction of avobenzone UV-A performance: filter combined with avobenzone
Source text: FIGS. 9-11 show the UV absorption behavior of chemical UV filters octinoxate, avobenzone, and oxybenzone, alone, in combination with avobenzone, and in combination with xanthommatin small molecules in unsaturated solution (0.03 wt %).

[3] = test system: BALB/c 3T3 mouse fibroblast cell lines; test: in vitro 3T3 NRU phototoxicity assay; assay type: cell-based
Method: Given the UV filter-boosting features of xanthommatin, we next tested its cytotoxicity with and without exposure to a noncytotoxic dose of UVA light (from 315 to 400 nm and a measuring range between 0-199.9 mW/cm2). In these experiments, cytotoxicity was expressed as a concentration dependent reduction of a neutral red dye uptake within BALB/c 3T3 mouse fibroblast cell lines after treatment both with and without the presence of UVA exposure. […] Instead, the mean photo effect was calculated using Equation 5,
where, the photo effect (PE) at any concentration (C) is defined as the product of the response effect (REC) and the dose effect (DEC) concentrations. MPE values of 0.019, 0.199, and 0.042 were measured for the three independent experiments with xanthommatin. […] In this figure, the grey lines represent data collected in the absence of UVA (−UVA), and the black lines represent data collected with exposure to UVA (+UVA). Data was collected for three independent experiments.
Since the toxicological endpoint of this in vitro 3T3 NRU phototoxicity assay was developed and validated in a joint EU/COLIPA project, this assay is a well-recognized in vitro alternative to the various in vivo tests in use.

[4] = UV-filter stabilizing properties: UV absorption of chemical UV filters with xanthommatin, day 1 and day 16; assay type: physicochemical; conditions: xanthommatin at about 0.01 wt %
Source text: This boost in stability in the presence of unsaturated solutions of xanthommatin was consistent across all chemical filters tested, including homosalate, octisalate, octocrylene, oxybenzone, and octinoxate. Between 10-100% UV filtering retention was observed over the course of weeks. Solutions including unsaturated solutions of one or more phenoxazone and/or phenoxazine compound, a precursor or derivative thereof, or a salt of any of the foregoing (e.g., xanthommatin, a precursor or derivative thereof, or a salt of any one of the foregoing, such as ammonium xanthommatin) may also boost the stability of UV-filters in the presence of solar simulated light, or solar light.
The UV-filter stabilizing properties of unsaturated solutions of xanthommatin were explored by comparing the behavior of UV-filter stabilizers over time to UV-filter stabilizers in combination with xanthommatin. As shown in FIGS. 4-8, the addition of unsaturated solutions of xanthommatin to solutions including oxybenzone (FIGS. 4A and 4B), avobenzone (FIGS. 5A and 5B), octi and homo-salate (FIGS. 6A and 6B), octinoxate (FIGS. 7A and 7B) and octocrylene (FIGS. 8A and 8B) increased the UV absorption between about 240 and about 310 nm on day 1, relative to the chemical UV filters alone. […]

[5] = Absorbance of xanthommatin alone and with FDA approved organic UV filters, 280-500 nm; assay type: physicochemical; conditions: 0.6 mM in DMSO
Method: The performance of ammonium xanthommatin was tested as a broad-spectrum absorber to assess whether the natural optical features of xanthommatin could be used to boost the UV performance of low (<0.2 mM) concentrations of organic UV filters. Xanthommatin's absorbance capabilities were tested alone in solution (FIG. 14) and in combination with FDA approved organic UV filters (FIGS. 15 and 16) over a spectral range of 280-500 nm. We observed a clear relationship between increasing concentrations of xanthommatin and the absorption of UV through visible light (FIG. 14). […] When xanthommatin was combined with the chemical UV filters, a significant increase in both the UVB (300 nm) and UVA (360 nm) range was achieved across all filters tested, where we observed at least a 50% increase in UVA and B performance upon addition with xanthommatin (FIG. 16).

[6] = SPF and critical wavelength of xanthommatin in solution; assay type: physicochemical
Source text: In certain embodiments, the compositions of the present application provide sun protection. In certain embodiments, the compositions provide an SPF of at least about 15, 30, 60, 100, or other suitable amount of protection. In certain embodiments, the amount of phenoxazone and/or phenoxazine compound, a precursor or derivative thereof, or a salt of any of the foregoing (e.g., xanthommatin, a precursor or derivative thereof, or a salt of any one of the foregoing, such as ammonium xanthommatin) in the composition may be altered or adjusted in order to provide a particular SPF. In certain embodiments, the amount of UV-filtering material (e.g., a UV-absorbing compound or a UV-scattering particle) in the composition may be altered or adjusted in order to provide a particular SPF. […]
SPF was calculated using the derived Mansur equation (Sayre, R. M., et al., A comparison of in vivo and in vitro testing of sunscreening formulas. Photochemistry and Photobiology, 1979. 29(3): p. 559-566) according to Equation 1, SPF=CFΣ290^320EE(λ)I(λ)Abs(λ), where EE (λ) represents the erythemal effect spectrum; I(λ) is solar intensity spectrum; Abs(a) absorbance of UV-filter; CF is the correction factor (=10). […] The calculated SPF values were rounded to the nearest whole number. […]

[7] = avobenzone combinations, Xa 0.03 wt %

UV absorption 290 nm ([2]; oxybenzone, Xa 0.03 wt %): 2
UV absorption 360 nm ([2]; oxybenzone, Xa 0.03 wt %): 0.31
SMILES: COc1ccc(C(=O)c2ccccc2)c(O)c1 [Oxy control, oxybenzone]
reduction of avobenzone UV-A performance [2]: about 46%

half life in solution compared to vitamin C ([1]; assayed at the same concentration): two times longer than vitamin C
critical wavelength [6]: 385 nm
SMILES: NC(CC(=O)c1cccc2oc3cc(=O)c4[nH]c(C(=O)O)cc(=O)c4c-3nc12)C(=O)O (centres unmarked) [xanthommatin, Ammonium xanthommatin]
antioxidant activity/capacity compared to known standards (Trolox, vitamin C) [1]: comparable activity to vitamin c and vitamin e; also recorded: comparable anti-oxidizing capacity to known antioxidant standards
antioxidant activity/capacity compared to known standards (Trolox, vitamin C) ([1]; listed as ammonium xanthommatin): comparable antioxidizing capacity to known antioxidant standards
relative fluorescence value (RFU) over time ([1]; compared to antioxidant alone, 10, 20, 40 μM): maintain a high RFU value for greater lengths of time
extension of the performance of vitamin C when combined with ammonium xanthommatin ([1]; equimolar blend): 23%
extension of the performance of vitamin E when combined with ammonium xanthommatin ([1]; equimolar blend): 9%
AUC [1]: 56
effect on UV absorption and stability of chemical UV filters [4]: enhances the UV absorption properties of the chemical UV filters and stabilizes the chemical UV filters over time
boost of performance of avobenzone ([2]; xanthommatin at 0.03 wt %): up to 109%
enhancement of UVB absorbing power of octinoxate and oxybenzone ([2]; xanthommatin at 0.03 wt %, in some cases): more than 250%
boost of activity of avobenzone in UV-A (360 nm) ([2]; xanthommatin at about 0.03 wt %): about 9%
boost of activity/performance of avobenzone in UV-B (300 nm) ([2]; xanthommatin at about 0.03 wt %, or second filter): ~250%
absorption profile compared to pure organic UV filters [5]: broader profile that spanned the UVB through visible light regions
phototoxicity classification [3]: not phototoxic; also recorded: neither phototoxic nor a photoirritant
EC50 ([3]; −UVA): no EC50-value could be calculated
relative cell viability at the highest test item concentration ([3]; −UVA controls, three independent experiments): 88.5% and 99.3% and 100.6%

Further lines, the molecule ahead of its results:

SMILES: O=C1O[C@H]([C@@H](O)CO)C(O)=C1O [AA, ascorbic acid, reference compound]
AUC [1]: 55

SMILES: Cc1c(C)c2c(c(C)c1O)CCC(C)(C(=O)O)O2 (centres unmarked) [Trolox, reference compound]
AUC [1]: 55

SMILES: COc1ccc(C(=O)CC(=O)c2ccc(C(C)(C)C)cc2)cc1 [avo control, avobenzone]
UV absorption 300 nm [2, 7]: 0.31
UV absorption 360 nm [2, 7]: 1.49

SMILES: CN(C)CCCN1c2ccccc2Sc2ccc(Cl)cc21 [chlorpromazine, reference compound]
EC50 ([3]; Mus musculus, BALB/c3T3, light or radiation study, +UVA, exp. 1, read-out: EC50): 0.221 µg/mL (≈ 0.693 µM)
PIF (photo-irritation-factor = EC50 (−UVA)/EC50(+UVA)) ([3]; exp. 1-3): 37.81 and 37.74 and 40.33

SMILES: CCCCC(CC)COC(=O)C=Cc1ccc(OC)cc1 (centres unmarked) [octinox control, octinoxate]
reduction of avobenzone UV-A performance [2]: ~56%
UV absorption 310 nm ([2]; octinoxate, Xa 0.03 wt %): 2.53
UV absorption 360 nm ([2]; octinoxate, Xa 0.03 wt %): 0
